Reference: patent US20250387363A1, “LIQUID EPINEPHRINE PRODRUG FORMULATIONS AND LIQUID EPINEPHRINE FORMULATIONS” (Insignis Therapeutics, Inc., priority 2024, published 2025)

How the values were obtained:
[1] = Cross study epinephrine PK comparison, L-dipivefrin HCl formulations vs EpiPen 0.3 mg; assay type: in vivo, human; conditions: oral formulations administered sublingually; Table 10.1
Description: FIG. 5. […] Study period I and study period II refer to the two test periods described in example 7 which are separated by a 1 week washout period.

[2] = tested on: healthy adult human volunteers; test: Cross study pharmacodynamic response comparison (SBP, DBP, PR change from baseline) vs EpiPen 0.3 mg; assay type: in vivo; conditions: sublingual liquid dosage form, 10 mg dipivefrin HCl, two hours postdose
[3] = rabbits; cited from earlier work

| Epinephrine exposures compared to Epipen 0.3 mg [1] | Structure (SMILES) | Median SBP (Systolic Blood Pressure) change from baseline response compared to EpiPen 0.3 mg injection ([2]; FIG. 6) | Median DBP (Diastolic Blood Pressure) change from baseline response compared to EpiPen 0.3 mg injection ([2]; FIG. 7) | Median PR (Pulse Rate) change from baseline response compared to EpiPen 0.3 mg injection ([2]; FIG. 8) | PD response (SBP, DBP and PR change from baseline) compared to EpiPen 0.3 mg injection ([2]; FIGS. 6-8) | Sublingual dose giving systemic absorption equivalent to IM epinephrine [3] |
| --- | --- | --- | --- | --- | --- | --- |
| comparable | CNC[C@H](O)c1ccc(OC(=O)C(C)(C)C)c(OC(=O)C(C)(C)C)c1.Cl [L-dipivefrin HCl, L-dipivefrin hydrochloride] | greater | greater | comparable or greater | comparable or greater | – |
| – | CNC[C@H](O)c1ccc(O)c(O)c1 [epinephrine, 4-[(1R)-1-hydroxy-2-(methylamino)ethyl]benzene-1,2-diol] | – | – | – | – | 40 mg |
